In patent US20190124918A1, “BIOFILM FORMATION INHIBITOR AND BIOFILM FORMATION INHIBITING COMPOSITION” (KAO CORPORATION, priority 2016, published 2019):

Key:
Assay type in all cases: cell-based
[1] = system: cooling water taken from a water cooling tower; test: Aqueous system model (annular reactor): amount of biofilm formed on test pieces (OD570); details: Test Example 4; 15 ppm in cooling water, 30° C.; solvent control finally beyond 0.7
Protocol: Biofilm formation inhibitory activity of p-toluquinone (Tokyo Kasei) was evaluated by an aqueous system model using an annular reactor (Art Science Co., Ltd.) having a 100 mL-volume culture tank. In the culture tank of the annular reactor, a cylindrical rotating body rotating at a speed of 160 rounds per minute was installed. To the rotating body, 12 test pieces were attached in advance. These test pieces were taken out at predetermined time intervals and biofilm formed on the test pieces was quantified. From a water cooling tower provided on a building rooftop and actually used, cooling water was taken and supplied to the annular reactor culture vessel (maintained at 30° C.) at a flow rate of 10 mL per minute; at the same time, an ethanol solution (15 g/L) of p-toluquinone was separately supplied to the annular reactor culture vessel by a syringe pump YSP-201 (manufactured by YMC) at a flow rate of 10 μL per minute (p-toluquinone concentration in cooling water in the culture tank was 15 ppm). The test pieces (n=2) taken out from the culture tank at predetermined time intervals were stained with 0.1% crystal violet, thoroughly washed twice with physiological saline and recovered in ethanol (15 mL). The absorbance (OD570) was measured to obtain the amount of the biofilm formed. […] Thereafter, the number of bacteria cells was measured. […]

[2] = system: Pseudomonas PAO1 strain (ATCC 15692); test: Amount of biofilm formed (crystal violet, OD570), 96-well microplate culture
How it was run: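 PAO1 suspension in Mueller Hinton Broth (OD600 1/10^6) grown stationary 24 h at 30 °C with compounds dried from ethanol plus DMSO, final about 7–333 ppm or as listed. Biofilm stained with 0.1% crystal violet, ethanol-eluted, OD570; inhibition % = {1−(compound OD570/ethanol-control OD570)}×100.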

[3] = system: biofilm-forming microbe isolated from cooling water taken from a water cooling tower; test: Biofilm inhibition test, quinone-based compound and chelating agent (OD570)
Protocol: A biofilm-forming microbe (microbe showing a OD570 value of 0.3 or more in the test for determining the amount of biofilm (the following section 2-4)) isolated from cooling water taken from a water cooling tower was cultured in R2A culture medium at 30° C. for 16 hours while shaking. The turbidity (OD600) of the resultant culture solution was measured. The culture solution was diluted with R2A culture medium to prepare a suspension of 10^3 cfu/mL.
Predetermined amounts of p-toluquinone and HEDP were weighed and solvent (MDG) was added to prepare a composition. Since citric acid and EDTA were not dissolved in MDG, they were directly added in culture solutions; at the same time, p-toluquinone was directly added to the culture solutions.
The suspension of a test microbe prepared in the above section 2-1) was added in individual wells of a 96 well microplate in an amount of 150 μL, and then, the test solutions prepared in the above section 2-2) was each added and culture was initiated.
After the 96 well microplate was subjected to stationary culture performed at 30° C. for 48 hours, the culture solution was removed and the resultant microplate was washed with water. Subsequently, each well was stained with 0.1% crystal violet and 200 μL of ethanol was added. The absorbance (OD570) was measured to obtain the amount of biofilm (BF) formed.

CC1=CC(=O)C=CC1=O [Compound a, p-Toluquinone]
amount of the biofilm formed (OD570) [1]: ≤ 0.2 | The amount of the biofilm formed OD570 ([2]; final concentration 7 ppm, EtOH control 0.9163): 0.7549 | BF inhibition (%) ([2]; final concentration 17 ppm): 18.6% | The amount of the biofilm formed OD570 ([2]; final concentration 20 ppm, EtOH control 0.9564): 0.8231 | BF inhibition (%) ([2]; final concentration 33 ppm): 36.6% | The amount of the biofilm formed OD570 ([2]; final concentration 33 ppm, EtOH control 0.8974): 0.7891 | BF inhibition (%) ([2]; final concentration 66 ppm): 39.9% | The amount of the biofilm formed OD570 ([2]; final concentration 67 ppm, EtOH control 0.8853): 0.7094 | BF inhibition (%) ([2]; final concentration 99 ppm): 73.7% | BF inhibition (%) ([2]; final concentration 116 ppm): 86.3% | BF inhibition (%) ([2]; final concentration 132 ppm): 85.1% | The amount of the biofilm formed OD570 ([2]; final concentration 200 ppm, EtOH control 0.9248): 0.7089 | The amount of the biofilm formed OD570 ([2]; final concentration 333 ppm, EtOH control 0.9562): 0.1222 | biofilm formation (in words) ([2]; high concentration range of 200 ppm or more): inhibited | biofilm formation (in words) ([2]; low concentration range of less than 200 ppm): inhibited | BF inhibitory effect of combined use of HEDP and p-toluquinone compared with p-toluquinone alone ([3]; Experiment No. 2 compared to Nos. 5 to 8): higher | OD570 ([3]; Experiment No. 12: Toluquinone 5 ppm, Citric acid 0 ppm, 0 ppm/0 ppm gave 0.329): 0.236 | BF inhibitory effect of combined use of citric acid and p-toluquinone compared with p-toluquinone alone ([3]; Experiment No. 12 compared to Nos. 15 to 18): higher | OD570 ([3]; Experiment No. 13: Toluquinone 10 ppm, Citric acid 0 ppm, 0 ppm/0 ppm gave 0.329): 0.048 | OD570 ([3]; Experiment No. 14: Toluquinone 20 ppm, Citric acid 0 ppm, 0 ppm/0 ppm gave 0.329): 0.051 | OD570 ([3]; Experiment No. 15: Toluquinone 5 ppm, Citric acid 0.5 ppm, 0 ppm/0 ppm gave 0.329): 0.057 | OD570 ([3]; Experiment No. 16: Toluquinone 5 ppm, Citric acid 2.5 ppm, 0 ppm/0 ppm gave 0.329): 0.054 | OD570 ([3]; Experiment No. 17: Toluquinone 5 ppm, Citric acid 5 ppm, 0 ppm/0 ppm gave 0.329): 0.054 | OD570 ([3]; Experiment No. 18: Toluquinone 5 ppm, Citric acid 10 ppm, 0 ppm/0 ppm gave 0.329): 0.053 | OD570 ([3]; Experiment No. 21: Tuluquinone 5 ppm, EDTA 0 ppm, 0 ppm/0 ppm gave 0.407): 0.358 | BF inhibitory effect of combined use of EDTA and p-toluquinone compared with p-toluquinone alone ([3]; Experiment No. 21 compared to Nos. 24 to 26): higher | OD570 ([3]; Experiment No. 22: Tuluquinone 10 ppm, EDTA 0 ppm, 0 ppm/0 ppm gave 0.407): 0.048 | OD570 ([3]; Experiment No. 23: Tuluquinone 20 ppm, EDTA 0 ppm, 0 ppm/0 ppm gave 0.407): 0.051 | OD570 ([3]; Experiment No. 24: Tuluquinone 5 ppm, EDTA 2.5 ppm, 0 ppm/0 ppm gave 0.407): 0.151 | OD570 ([3]; Experiment No. 25: Tuluquinone 5 ppm, EDTA 5 ppm, 0 ppm/0 ppm gave 0.407): 0.077 | OD570 ([3]; Experiment No. 26: Tuluquinone 5 ppm, EDTA 10 ppm, 0 ppm/0 ppm gave 0.407): 0.078
